For experiment [1], the system named is mouse primary adipocytes. Put plainly: 2-NBDG glucose uptake in mouse primary adipocytes. The class given is cell-based. Conditions: inhibitor 1 μM; for effect of co-treatment on CYSTM1-induced glucose uptake: primary adipocytes, CYSTM1 1 μM. As to the method: (§1) To determine whether CYSTM1 can increase glucose uptake in adipocytes, in vitro assays of 2-NBDG uptake in response to CYSTM1 treatment and potential inhibitors in 3T3-L1 adipocytes and mouse primary adipocytes were performed. 3T3-L1 preadipocytes were maintained in Dulbecco's modified Eagle's medium (DMEM) supplemented with 10% fetal bovine serum. Two days after confluence, 3T3-L1 cells were induced to differentiation using the standard adipogenic cocktail (0.5 mM IBMX, 1 μM dexamethasone and 10 μg/ml insulin) that was applied for 4 days and followed by 10 μg/ml insulin treatment for additional 4 days. The culture medium was changed every other day. The differentiated cells were maintained in normal serum containing DMEM. Mouse primary adipocytes were isolated from 10 to 12-week-old male C57BL/6J mice using a collagenase digestion protocol as described, briefly, white fat pads were removed, minced and digested using collagenase for 60-90 min at 37° C. in Krebs-Ringers phosphate HEPES buffer (KRPH) (15 mM HEPES, pH 7.4, 118 mM NaCl, 4.8 mM KCl, 1.2 mM MgSO4, 1.3 mM CaCl2, 1.2 mM KHPO3, 0.1% BSA). The stromal vascular fraction was separated from the adipocytes and cultured using DMEM and differentiated the same as 3T3-L1 adipocytes as described above. For glucose uptake, differentiated 3T3-L1 adipocytes and primary adipocytes are plated at 10,000 cells/well in 96-well plates and fasted overnight with low glucose serum-free medium (DMEM with 0.25% BSA) DMEM and 2-NBDG (Cayman Chemical) was performed as follow: briefly, 3T3-L1 cells were washed twice with warm (37° C.) KRPH buffer, and adipocytes were either untreated or treated with different concentration of CYSTM1 (1 nM, 10 nM, 100 nM and 1000 nM) for 1 h in KRPH buffer containing 400 nM of 2-NBDG. NBDG uptake was measured using a fluorescent microplate reader (Thermo Scientific Varioskan LUX Multimode Microplate Reader).

Experiment [2] concerns 3T3-L1 adipocytes. Put plainly: 2-NBDG glucose uptake in 3T3-L1 adipocytes. The following applies: inhibitor 1 μM; for effect of co-treatment on CYSTM1-induced glucose uptake: 3T3-L1 cells, CYSTM1 1 μM. The class given is cell-based. As to the method: as §1
In experiment [3] the test system is MIN6 pancreatic beta cell. Briefly: Insulin secretion in MIN6 cells with GLP-1R antagonist exendin (9-39). The class given is cell-based, mouse. Conditions: exendin (9-39) 10 nM.

Here are results for four molecules from patent publication US20240382561A1, “GLUCOREGULATORY COMPOUND, COMPOSITION AND USES THEREOF” (THE HONG KONG POLYTECHNIC UNIVERSITY, priority 2021, published 2024).

Regarding `Cc1cccc([C@@H](CO)NC(=O)[C@@H](C)N2Cc3ccc(-c4nc(NC5CCOCC5)ncc4Cl)cc3C2=O)c1` [ERK1/2 inhibitor 1], the “effect of co-treatment on CYSTM1-induced glucose uptake” value in experiment [1] and in experiment [2] was “blocked” in each case.
Regarding glucagon-like peptide 1 [GLP-1], the “glucose-induced insulin secretion of GLP-1 in presence of exendin (9-39)” value in experiment [3] (GLP-1 10 nM) was “inhibited by exendin (9-39)”.
exendin (9-39): in experiment [3] (CYSTM1 10 nM), the “inhibition of CYSTM1 activity (insulin secretion) by the antagonist” value was “did not inhibit CYSTM1 activity”. In addition, the “inhibition of glucose-induced insulin secretion of GLP-1 by the antagonist” value in experiment [3] (GLP-1 10 nM) is on record as “inhibited”.
In the case of `CCn1c(-c2nonc2N)nc2c(C#CC(C)(C)O)ncc(OC[C@H]3CCCNC3)c21` [GSK690693], the “inhibition of CYSTM1-induced increase in glucose uptake” value in experiment [1] (mouse primary adipocytes, 5 μM, 10 μM, CYSTM1 1 μM (FIG. 8D)) was “inhibited by the dose-dependent manner”; in experiment [2] (3T3-L1 adipocytes, 5 μM, 10 μM, CYSTM1 1 μM (FIG. 8B)), “inhibited by the dose-dependent manner”. Moreover, the “effect of co-treatment on CYSTM1-induced glucose uptake” value in experiment [1] and in experiment [2] was “blocked” throughout.
